One block for each molecule: values may come before it.
What was measured:
[1] = system: SU-DHL-4 subcutaneously transplanted tumor; test: Antitumor effect on subcutaneous transplant model in SCID mouse, DLBCL strain SU-DHL-4, compound 1a (Test Example 3); type: in vivo; conditions: for T/C: V/V0 of group divided by vehicle group; for Body Weight / Tumor Volume (mm^3): male SCID mouse; for Body Weight / V/V0 (tumor growth rate) / Tumor Volume (mm^3): mean of n=5; for Tumor Volume (mm^3): compound 1a 3 mg/kg i.v. (tail vein) 5 times a week for 2 weeks
Experimental: cells of DLBCL strain SU-DHL-4 (Code No. ACC 495, Deutsche Sammlung von Mikroorganismen and Zellkulturen GmbH) suspended in a 1:1 mixed solution of PBS and matrigel (CORNING Code No. 354234) were transplanted subcutaneously to the ventral side of a male SCID mouse. Eighteen days after the transplantation, the body weight and the tumor diameter were measured, the tumor volume was calculated by the following formula, and the mice were divided into two groups (n=5) so that the average tumor volume of each group was equal.
(§1) [Tumor volume (mm^3)]=[Tumor long diameter (mm)]×[Tumor short diameter (mm)]^2×0.5
The test was conducted in two groups, a vehicle administration group and a compound 1a administration group (compound administration group). To the compound 1a administration group, a solution of compound 1a dissolved in 30% DMSO/3% Tween 80/physiological saline so as to give a final concentration of 0.6 mg/mL was administered intravenously (tail vein) at 5 mL/kg (3 mg/kg) 5 times a week for 2 weeks. To the vehicle administration group, 30% DMSO/3% Tween 80/physiological saline was administered intravenously (tail vein) at 5 mL/kg on the same schedule as the compound 1a administration group. After the start of the test, body weight and tumor diameter were measured twice a week. The tumor volume on each measurement day was calculated by the above formula. The tumor growth rate (hereinafter referred to as V/VO) was calculated by dividing the tumor volume V on each measurement day by the tumor volume VO on the test start day (Day 0). The T/C was calculated by dividing the average value (T) of V/VO of each group by the average value (C) of the vehicle administration group.

[2] = system: SU-DHL-4 subcutaneously transplanted tumor; test: Antitumor effect on subcutaneous transplant model in SCID mouse, DLBCL strain SU-DHL-4, compound 1b (Test Example 9); type: in vivo; conditions: for Tumor Volume (mm^3): compound 1b 10 mg/kg i.v. (tail vein) once on the test start day; for Tumor Volume (mm^3) / Body Weight: male SCID mouse; for Tumor Volume (mm^3) / Body Weight / V/V0 (tumor growth rate): mean of n=5; for T/C: V/V0 of group divided by vehicle group
Experimental: 1×10^7 cells of DLBCL strain SU-DHL-4 (Code No. ACC 495, Deutsche Sammlung von Mikroorganismen and Zellkulturen GmbH) suspended in a 1:1 mixed solution of PBS and matrigel (CORNING Code No. 354234) were transplanted subcutaneously on the ventral side of male SCID mouse. 14 days after the transplantation, the body weight and tumor diameter were measured, the tumor volume was calculated by the following formula, and the mice were divided into two groups (n=5) so that the average tumor volume of each group was equal. E-workbook software (ID Business Solutions) was used for grouping and measurement.
as §1
To the compound 1b administration group, a solution of compound 1b dissolved in 30% DMSO/3% Tween 80/physiological saline so as to give a final concentration of 2 mg/mL was administered intravenously (tail vein) at 5 mL/kg (10 mg/kg) once on the test start day. To the vehicle administration group, 30% DMSO/3% Tween 80/physiological saline was administered intravenously (tail vein) at 5 mL/kg in the same schedule as in the compound 1b administration group. After the start of the test, body weight and tumor diameter were measured twice a week. The tumor volume on each measurement day was calculated by the above formula. The tumor growth rate (hereinafter referred to as V/VO) was calculated by dividing the tumor volume V on each measurement day by the tumor volume VO on the test start date (Day 0). The T/C was calculated by dividing the average value (T) of V/VO of each group by the average value (C) of the vehicle administration group.

[3] = Day 0, compound 1a 3 mg/kg i.v. 5 times a week for 2 weeks
[4] = Day 3, compound 1a 3 mg/kg i.v. 5 times a week for 2 weeks
[5] = Day 7, compound 1a 3 mg/kg i.v. 5 times a week for 2 weeks
[6] = Day 10, compound 1a 3 mg/kg i.v. 5 times a week for 2 weeks
[7] = Day 14, compound 1a 3 mg/kg i.v. 5 times a week for 2 weeks
[8] = Day 18, compound 1a 3 mg/kg i.v. 5 times a week for 2 weeks
[9] = compound 1a 3 mg/kg i.v. 5 times a week for 2 weeks, SCID mouse
[10] = Day 0, compound 1b 10 mg/kg i.v. once
[11] = Day 4, compound 1b 10 mg/kg i.v. once
[12] = Day 7, compound 1b 10 mg/kg i.v. once
[13] = Day 10, compound 1b 10 mg/kg i.v. once
[14] = Day 14, compound 1b 10 mg/kg i.v. once
[15] = Day 17, compound 1b 10 mg/kg i.v. once
[16] = compound 1b 10 mg/kg i.v. once, SCID mouse

weight loss [1, 9]: no weight loss was observed
Compound: CCC(=O)N1c2ccccc2[C@H](Nc2ccc(C(=O)NCCCNC(=O)c3ccc(N[C@@H]4C[C@H](C)N(C(=O)CC)c5ccccc54)cc3)cc2)C[C@@H]1C (relative stereo) [Compound 1a, N,N′-(Propane-1,3-diyl)bis(4-{[(2S*,4R*)-2-methyl-1-propionyl-1,2,3,4-tetrahydroquinolin-4-yl]amino}benzamide)]
T/C [1, 3]: 1.00
Body Weight [1, 3]: 24.56 g
V/V0 (tumor growth rate) [1, 3]: 1.00
Tumor Volume (mm^3) ([1]; Day 0): 246.14 mm^3
T/C [1, 4]: 0.71
Body Weight [1, 4]: 25.36 g
V/V0 (tumor growth rate) [1, 4]: 1.15
Tumor Volume (mm^3) ([1]; Day 3): 284.29 mm^3
T/C [1, 5]: 0.48
Body Weight [1, 5]: 25.44 g
V/V0 (tumor growth rate) [1, 5]: 1.29
Tumor Volume (mm^3) ([1]; Day 7): 326.25 mm^3
T/C [1, 6]: 0.22
Body Weight [1, 6]: 25.14 g
V/V0 (tumor growth rate) [1, 6]: 0.85
Tumor Volume (mm^3) ([1]; Day 10): 214.74 mm^3
T/C [1, 7]: 0.17
Body Weight [1, 7]: 25.74 g
V/V0 (tumor growth rate) [1, 7]: 0.89
Tumor Volume (mm^3) ([1]; Day 14): 224.55 mm^3
T/C [1, 8]: 0.16
Body Weight [1, 8]: 26.23 g
V/V0 (tumor growth rate) [1, 8]: 1.30
Tumor Volume (mm^3) ([1]; Day 18): 325.61 mm^3
antitumor effect on SU-DHL-4 subcutaneously transplanted tumor [1, 9]: potent antitumor effect

weight loss [2, 16]: no weight loss was observed
Compound: Cc1sc2c(c1C)C(c1ccc(C(=O)NCCCNC(=O)c3ccc(C4=N[C@@H](CC(=O)OC(C)(C)C)c5nnc(C)n5-c5sc(C)c(C)c54)cc3)cc1)=N[C@@H](CC(=O)OC(C)(C)C)c1nnc(C)n1-2 [Compound 1b, Di-tert-butyl 2,2′-[(6S,6′S)-({[propane-1,3-diylbis(azanediyl)]bis(carbonyl)}bis(4,1-phenylene))bis(2,3,9-trimethyl-6H-thieno[3,2-f][1,2,4]triazolo[4,3-a][1,4]diazepine-4,6-diyl)]diacetate]
Tumor Volume (mm^3) ([2]; Day 0): 208 mm^3
T/C [2, 10]: 1.00
Body Weight [2, 10]: 25 g
V/V0 (tumor growth rate) [2, 10]: 1.00
Tumor Volume (mm^3) ([2]; Day 4): 101 mm^3
T/C [2, 11]: 0.31
Body Weight [2, 11]: 25 g
V/V0 (tumor growth rate) [2, 11]: 0.49
Tumor Volume (mm^3) ([2]; Day 7): 49 mm^3
T/C [2, 12]: 0.12
Body Weight [2, 12]: 25 g
V/V0 (tumor growth rate) [2, 12]: 0.24
Tumor Volume (mm^3) ([2]; Day 10): 66 mm^3
T/C [2, 13]: 0.11
Body Weight [2, 13]: 26 g
V/V0 (tumor growth rate) [2, 13]: 0.32
Tumor Volume (mm^3) ([2]; Day 14): 87 mm^3
T/C [2, 14]: 0.12
Body Weight [2, 14]: 26 g
V/V0 (tumor growth rate) [2, 14]: 0.42
Tumor Volume (mm^3) ([2]; Day 17): 122 mm^3
T/C [2, 15]: 0.13
Body Weight [2, 15]: 27 g
V/V0 (tumor growth rate) [2, 15]: 0.59
antitumor effect on SU-DHL-4 subcutaneously transplanted tumor [2, 16]: potent antitumor effect

Source: US20220378923A1, “BET DEGRADER” (KYOWA KIRIN CO., LTD., priority 2019, published 2022)
